Test results as given in patent US20050069513A1, “Amphiphilic compounds for pharmaceutical or cosmetic use” (Physica S.A.R.L., priority 2001, published 2005).

Experiment: Formation of ion pair in aqueous phase: solubility / appearance of solutions
Format: physicochemical
Details: acylamino acid dispersed in aqueous phase, milky white appearance
Text: Two aqueous solutions are used. The first contains calcitonin. Due to the fact that the calcitonin is hydrophilic, the solution is clear. […] This second solution has a milky white appearance.
The obtained complex, calcitonin oleyl methyl glycine, is therefore amphiphilic.
Two aqueous solutions are used. The first contains lidocaine dispersed in the aqueous solution. […] This second solution has a milky white appearance.
The obtained complex, lidocaine oleyl glycine, is therefore amphiphilic.
A solution of NaOH in the quantity required for causing precipitation of all of the polymyxin E by deplacement of the sulphate salt is added to a solution of polymyxin E sulphate. Polymyxin E, also known as colistin, thereby goes back to its non-salified, basic structure. The resulting solution, solution B, is thus an aqueous phase with a precipitate of polymyxin E.
The polymyxin is thus resolubilized in the form of an amphiphilic complex, polymyxin E linoleyl glycine.

| Compound | solubility in water |
| --- | --- |
| CCCCC/C=C\C/C=C\CCCCCCCCNCC(=O)O [linoleyl glycine] | only slightly soluble in water |
| CCCCCCCC/C=C\CCCCCCCCN(C)CC(=O)O [oleyl methyl glycine] | only slightly soluble in water |
| CCCCCCCC/C=C\CCCCCCCCNCC(=O)O [oleyl glycine] | only slightly soluble in water |
